Experimental data from PMC6283646, “Identification and binding mode of a novel Leishmania Trypanothione reductase inhibitor from high throughput screening” (PLoS Neglected Tropical Diseases, 2018).
Like-named read-outs stand apart in the source and are kept apart here. Blank lines part the entries; values can stand above or below the compound they belong to.

Columns and labels:
[1] = system: L. infantum promastigotes; assay: Inhibition of promastigote growth (MTT); assay type: cell-based; conditions: for IC50: Leishmania infantum, 72 h, MTT
Experimental: Promastigote (the extracellular stage of the Leishmania life cycle) growth inhibition was evaluated using L. infantum strain (MHOM/TN/80/IPT1). […] Promastigotes were grown in Schneider’s Drosophila medium (SIGMA) containing 10% Fetal Calf Serum (FCS) (GIBCO-BRL) and 2% gentamicin (50 mg/L) (Sigma) at 22°C. Parasites were adjusted to 1 × 10^6 parasites/mL, and 200 μL of suspension was seeded in triplicate in 96-well flat bottom microplates and incubated with varying concentrations of compound. […] Each experiment was done in triplicate for each drug concentration and two independent experiments were performed. After 72 h of incubation, 30 μL of MTT was added to each well and plates were further incubated for 2 h. The absorbance at 550 nm was measured with a 96-well scanner (DINEX Technologies, VA, USA). Anti-leishmanial activity per experimental point was expressed as mean percentage of inhibition with respect to vehicle treated parasites (0%). In addition, the promastigote vitality was followed by microscopic observation after 72 h. Data were analyzed and plotted by Prism (GraphPad, San Diego, USA).

L. infantum TR [2] = target: T1, L. infantum TR (Leishmania infantum, UniProt A4HSF7); assay: Luminescence-based (NADPH-Glo) TR enzymatic assay; assay type: biochemical
T1 construct: made in house
T1 sequence (A4HSF7 entry or part of it): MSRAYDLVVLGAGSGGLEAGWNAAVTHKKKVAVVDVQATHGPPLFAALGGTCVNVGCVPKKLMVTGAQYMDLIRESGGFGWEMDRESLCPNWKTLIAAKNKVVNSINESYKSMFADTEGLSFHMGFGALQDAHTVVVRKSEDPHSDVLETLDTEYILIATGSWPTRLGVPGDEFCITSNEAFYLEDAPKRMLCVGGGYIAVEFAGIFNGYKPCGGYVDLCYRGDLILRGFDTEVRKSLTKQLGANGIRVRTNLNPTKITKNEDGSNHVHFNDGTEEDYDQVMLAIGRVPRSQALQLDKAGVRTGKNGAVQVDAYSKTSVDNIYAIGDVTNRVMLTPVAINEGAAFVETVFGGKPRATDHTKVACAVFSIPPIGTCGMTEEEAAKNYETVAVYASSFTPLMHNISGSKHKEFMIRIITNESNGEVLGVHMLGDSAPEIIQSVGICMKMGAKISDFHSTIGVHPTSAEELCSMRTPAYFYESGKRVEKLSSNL
Description: (§1) L. infantum TR was cloned and purified as previously described.[9, 28] Bovine serum albumin (BSA), NADPH, auranofin, hGR, oxidized glutathione (GSSG) and DTNB were purchased from Sigma-Aldrich (St. Louis, MO); oxidized trypanothione (TS2) was purchased from Bachem (Bubendorf, Switzerland); the NADPH-Glo kit was purchased from Promega (Madison, WI, U.S.A.). Compounds, dissolved in DMSO, were transferred to 384-well white plates (Greiner Bio One, Frickenhausen, Germany) using the acoustic droplet ejection technology (ATS-100, EDC Biosystems, U.S.A.) to reach the desired final concentration. The TR enzymatic reaction was performed by addition of 0.1 nM TR, 12.5 μM NAPDH, 15 μM TS2 in 50 mM HEPES (pH 7.4), 40 mM NaCl, 0.01% BSA in a final volume of 15 μL. After 60 min of incubation at room temperature, an equal volume of NADPH-Glo reagent was added and the luminescent signal was acquired by an EnVision plate reader (PerkinElmer, Waltham, MA, U.S.A.). […] In addition, in order to make sure that the production of a reducing agent (i.e. T(SH)2) by the TR activity was not going to interfere with the assay, and in absence of T(SH)2 as purified reagent, the effect of DTT and GSH was tested on the NADPH-Glo reaction resulting in no interference at concentrations relevant for the current setup (S2 Fig). The hGR assay was performed by addition of 0.5 nM hGR, 10 μM GSSG, 20 μM NADPH in 50 mM HEPES (pH 7.4), 40 mM NaCl, 0.01% BSA in a final volume of 15 μL. After 30 min incubation at room temperature 15 μl of NADPH-Glo kit was added to reveal the signal. The 5,5′-dithiobis(2-nitrobenzoic acid) (DTNB) assay was performed using 2 nM TR, 100 μM NADPH, 4 μM TS2 and 200 μM DTNB in 40 mM HEPES (pH 7.4), 1 mM EDTA, 0.01% BSA and 0.05% tween-20 in a final volume of 50 μl. The absorbance signal (412 nm) was acquired 15 minutes post incubation at room temperature using the plate reader (Safire2, Tecan, Switzerland). Results were analyzed using Prism software (GraphPad, San Diego, CA, U.S.A.) and Vortex (Dotmatics, Bioshops Stortford, UK). Dose-response curves were fitted by four-parameter logistic regression.

L. infantum TR [3] = target: T1, L. infantum TR; assay: DTNB absorbance-based TR assay; assay type: biochemical
Description: as §1, with “The 5,5′-dithiobis(2-nitrobenzoic acid) (DTNB) assay was performed using 2 nM TR, 100 μM NADPH, 4 μM TS2 and 200 μM DTNB in 40 mM HEPES (pH 7.4), 1 mM EDTA, 0.01% BSA and 0.05% tween-20 in a final volume of 50 μl.” left out

[4] = target: T2, human glutathione reductase (hGR) (Homo sapiens, UniProt P00390); assay: hGR assay (NADPH-Glo); assay type: biochemical; conditions: for IC50: n=3
T2 construct: purchased Sigma-Aldrich
T2 sequence (P00390 44-522): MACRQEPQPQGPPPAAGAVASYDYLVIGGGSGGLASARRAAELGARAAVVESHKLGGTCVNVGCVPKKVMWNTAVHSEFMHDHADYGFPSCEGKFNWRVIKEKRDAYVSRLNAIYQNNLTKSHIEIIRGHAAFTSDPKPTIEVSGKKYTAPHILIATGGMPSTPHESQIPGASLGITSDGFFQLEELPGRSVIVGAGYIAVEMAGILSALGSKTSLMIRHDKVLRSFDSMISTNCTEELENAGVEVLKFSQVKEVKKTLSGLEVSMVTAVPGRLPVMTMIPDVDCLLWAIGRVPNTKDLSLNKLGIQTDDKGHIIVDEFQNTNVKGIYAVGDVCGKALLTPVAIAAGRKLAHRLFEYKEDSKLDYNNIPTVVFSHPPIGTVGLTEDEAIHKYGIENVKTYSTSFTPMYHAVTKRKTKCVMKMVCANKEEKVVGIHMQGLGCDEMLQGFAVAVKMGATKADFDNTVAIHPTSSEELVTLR
Description: as §1

TR [5] = target: T3, TR (Leishmania infantum, UniProt A4HSF7); assay: Competition assay with TS2 or NADPH; assay type: biochemical; conditions: 4, 16, 64 μM compound
T3 construct: made in house
T3 sequence (A4HSF7 1-491): as the sequence (A4HSF7 entry or part of it) above
Experimental: Competition assays were performed using three test concentrations (4, 16 and 64 μM) for the competing compounds. The reaction buffer and components were mostly identical to those used in the TR assay described above, but 1 nM TR was employed for 5 minutes against a serial dilution of either TS2 in presence of 40 μM NADPH or NADPH in presence of 30 μM TS2. The residual amount of NADPH was measured using the NADPH-Glo kit (Promega, U.S.A.) after 30 min incubation at room temperature as per the manufacturer’s protocol. The luminescent signal was measured using the EnVision plate reader (PerkinElmer, USA). IC50, Vmax, and Km values were calculated using Prism software (GraphPad, San Diego, CA, U.S.A.).
The NADPH concentration for the TS2 dilutions was 40 μM while the TS2 concentration for the NADPH dilutions was 30 μM.

[6] = Solubility in assay buffer; assay type: physicochemical; conditions: aqueous buffer
TR [7] = target: T3, TR; assay: Binding assay by SPR
Experimental: Surface plasmon resonance (SPR) interaction analysis was performed using a Biacore T200 (GE Healthcare, Uppsala, Sweden). TR was immobilized on a CM4 chip by amine coupling according to manufacturer’s instructions (Amine Coupling Kit, GE Healthcare, Uppsala, Sweden). Briefly, the surface of the sensor chip was activated for 7 min using a mixture of 0.1 M N-hydroxy succinimide (NHS) and 0.4 M N-ethyl-N’-[3-dimethyl-aminopropyl] carbodiimide (EDC) then 25 μg/mL of TR in 10 mM sodium acetate (pH 5.0) was injected for 360 s at 10 μl/min, finally residual activated groups on the surface were blocked by a 7-min injection of 1 M ethanolamine (pH 8.5). A reference channel for background subtraction was prepared by activation with EDC/NHS mixture (0.1 M/0.4 M as per ligand immobilization), followed by blocking with 1 M ethanolamine. The binding of the selected hit to the immobilized ligand was evaluated by a multi-cycle kinetic procedure in 50 mM HEPES pH 7.4, 40 mM NaCl, 0.05% Tween-20 supplemented with 2% DMSO (Sigma Aldrich). The analyte was injected for 20 s at 30 μl/min until equilibrium and dissociation monitored for 120 s. A standard curve of DMSO was included for solvent correction. Biomolecular binding events were reported as changes of resonance units (RUs) over time. The data were analysed by the Biacore T200 evaluation software: specific sensorgrams were obtained for the analyte, by subtracting the signals of the reference channel to those of the TR-immobilized one, and corrected for DMSO interference from DMSO standard curve. The binding affinity was evaluated at steady state whereas the kinetic parameters were calculated by a one-phase association and two-phase dissociation model using the Prism software (GraphPad, San Diego, CA, U.S.A.)

TR [8] = target: T3, TR; set-up: method as in PMID 26033467; conditions: read-out: TS2 Km; cited from earlier work
[9] = Fig 5, read-out: IC50 (TR inhibition potency)

IC50 [1]: 0.5 µM
Structure (SMILES): C[C@@H]1[C@H](O)[C@@H](C)/C=C/C=C/C=C/C=C/C=C/C=C/C=C/[C@H](O[C@@H]2O[C@H](C)[C@@H](O)[C@H](N)[C@@H]2O)C[C@@H]2O[C@](O)(C[C@@H](O)C[C@@H](O)[C@H](O)CC[C@@H](O)C[C@@H](O)CC(=O)O[C@H]1C)C[C@H](O)[C@H]2C(=O)O [Amphotericin B, reference compound]

Structure (SMILES): CC(=O)OC[C@H]1O[C@@H]([S-])[C@H](OC(C)=O)[C@@H](OC(C)=O)[C@@H]1OC(C)=O.CCP(CC)CC.[Au+] [Auranofin, reference compound]
IC50 (L. infantum TR [2]; dose-response, Fig 3D, read-out: potency, luminescent assay): 6.6 ± 1.05 µM
IC50 (L. infantum TR [3]; dose-response, Fig 3D, read-out: potency, DTNB assay): 154 ± 10.7 nM

Structure (SMILES): O=C(N/N=C/c1ccc([N+](=O)[O-])s1)C1CC12CCC2 (stereo not drawn) [Compound 1]
IC50 (L. infantum TR [2]; [9]): 1.76 ± 0.371 µM

Structure (SMILES): CN(C)C(=O)c1ccc(NCCC(=O)c2cc3ccccc3o2)cc1 [Compound 2]
selectivity for TR with respect to hGR [4]: not selective
IC50 [4]: 13.9 ± 3.5 µM
IC50 (L. infantum TR [2]; [9]): 13.3 ± 2.69 µM
IC50 (L. infantum TR [2]; n=3, read-out: TR assay IC50): 13.3 ± 2.69 µM

Structure (SMILES): CCN(CC)CCOC(=O)c1ccc(NCCC(=O)c2ccc([N+](=O)[O-])cc2)cc1 [Compound 3, 2-(Diethylamino)ethyl 4-((3-(4-nitrophenyl)-3-oxopropyl)amino)benzoate]
selectivity for TR with respect to hGR [4]: selective
IC50 [4]: > 85 µM
competition with NADPH (TR [5]; 30 μM TS2): competitive for NADPH
effect on TS2 Km (TR [5]; 40 μM NADPH): did not alter TS2 Km
solubility [6]: > 100 µM
Kd (TR [7]; Kd from kslow/kon ratio, kslow/kon): 22.7 µM
kon (TR [7]; one-phase association model): 3510 ± 1.09e+06 M⁻¹ s⁻¹
Kd (TR [7]; steady state, read-out: steady state calculated Kd): 28.3 ± 5.12 µM
kfast (TR [7]; two-phase dissociation model): 5.88 ± 0.96 s⁻¹
kslow (TR [7]; two-phase dissociation model): 0.08 ± 0.02 s⁻¹
promastigote mortality ([1]; 72 h after treatment, up to 100 μM): 100%
IC50 [1]: 12.4 ± 1.09 µM
IC50 (L. infantum TR [2]; [9]): 7.51 ± 2.53 µM
IC50 (L. infantum TR [2]; n=3, read-out: TR assay IC50): 7.52 ± 2.53 µM
IC50 (L. infantum TR [2]; read-out: Luminescence assay IC50 (in vitro potency, TR)): 7.5 ± 2.5 µM
IC50 (L. infantum TR [3]; read-out: DTNB IC50): 4000 ± 900 nM

Structure (SMILES): N[C@@H](CCC(=O)N[C@@H](CS)C(=O)NCC(=O)NCCCCNCCCNC(=O)CNC(=O)[C@H](CS)NC(=O)CC[C@H](N)C(=O)O)C(=O)O [TS2, N1,N8-bis(glutathionyl)spermidine]
Km (TR [8]): 23 ± 1 µM
Km (L. infantum TR [2]; luminescent assay, 0.5 nM TR, 12.5 μM NADPH, read-out: TS2 Km (apparent)): 13.5 ± 3.8 µM
Km (L. infantum TR [3]; DTNB assay, 20 nM TR, 100 μM NADPH, read-out: TS2 Km (apparent)): 3.6 ± 0.5 µM
